“Also recorded” adds a separate entry of the source. Like-named read-outs stand apart in the source and are kept apart here. Starred links: 1 amine or outer side, 2 acyl side, 3 side chain; linkers in the order of their positions; H or OH if unused. Positions of bridges follow the written chain, without caps; N, C: chain ends. Non-standard residues stand in square brackets, D forms with d. Residues, ends and D or L forms follow the SMILES beside them. Chains are numbered I, II in the order given. *: point of attachment. Fluorescein(5-Mal) = O=C1OC2(c3ccc(O)cc3Oc3cc(O)ccc32)c2ccc(N3C(=O)CC(*)C3=O)cc21; Gly(N-piperonyl) = O=C(O)CNCc1ccc2c(c1)OCO2; X1 = CC(c1ccccc1)N(CC(=O)[*:2])[*:1]; Nrpe = C[C@@H](NCC(=O)O)c1ccccc1; Nleu = CC(C)CNCC(=O)O; Nlys = NCCCCNCC(=O)O; Ahx = NCCCCCC(=O)O; βAla = NCCC(=O)O
Experiments:
[1] = molecular target: T1, VEGFR2 (Homo sapiens, UniProt P35968); assay: VEGF-induced VEGFR2 autophosphorylation in PAE/KDR cells, Western blot; type: cell-based; design: allow the library to be screened against the full-length receptor in as natural an environment as possible; host or cells: PAE/KDR (porcine aortic endothelial cells expressing human KDR)
Description: Western blots. Experiments were conducted using PAE/KDR cells that were grown on 6-well plates. […] The blots were probed with Phospho-VEGF receptor 2 (Tyr1175) (19A10) rabbit monoclonal or Total VEGFR2 primary antibodies (Cell signaling) and HRP-conjugated secondary antibody (BioRad).
Functional characterization of the VEGFR2-binding peptoids. GU40C and GU40E were then tested for their ability to modulate VEGFR function. Of course, since the screen simply demanded binding of the peptoid to the receptor, it was not a given that this would be the case. […] Western blot analysis using phospho-VEGFR2-specific antibodies was then employed to monitor receptor activation.
To do so, the inventors examined the effect of the peptoid on VEGF-induced VEGFR2 autophosphorylation by Western blotting, as described earlier.
Target sequence in this assay (P35968 20-1356): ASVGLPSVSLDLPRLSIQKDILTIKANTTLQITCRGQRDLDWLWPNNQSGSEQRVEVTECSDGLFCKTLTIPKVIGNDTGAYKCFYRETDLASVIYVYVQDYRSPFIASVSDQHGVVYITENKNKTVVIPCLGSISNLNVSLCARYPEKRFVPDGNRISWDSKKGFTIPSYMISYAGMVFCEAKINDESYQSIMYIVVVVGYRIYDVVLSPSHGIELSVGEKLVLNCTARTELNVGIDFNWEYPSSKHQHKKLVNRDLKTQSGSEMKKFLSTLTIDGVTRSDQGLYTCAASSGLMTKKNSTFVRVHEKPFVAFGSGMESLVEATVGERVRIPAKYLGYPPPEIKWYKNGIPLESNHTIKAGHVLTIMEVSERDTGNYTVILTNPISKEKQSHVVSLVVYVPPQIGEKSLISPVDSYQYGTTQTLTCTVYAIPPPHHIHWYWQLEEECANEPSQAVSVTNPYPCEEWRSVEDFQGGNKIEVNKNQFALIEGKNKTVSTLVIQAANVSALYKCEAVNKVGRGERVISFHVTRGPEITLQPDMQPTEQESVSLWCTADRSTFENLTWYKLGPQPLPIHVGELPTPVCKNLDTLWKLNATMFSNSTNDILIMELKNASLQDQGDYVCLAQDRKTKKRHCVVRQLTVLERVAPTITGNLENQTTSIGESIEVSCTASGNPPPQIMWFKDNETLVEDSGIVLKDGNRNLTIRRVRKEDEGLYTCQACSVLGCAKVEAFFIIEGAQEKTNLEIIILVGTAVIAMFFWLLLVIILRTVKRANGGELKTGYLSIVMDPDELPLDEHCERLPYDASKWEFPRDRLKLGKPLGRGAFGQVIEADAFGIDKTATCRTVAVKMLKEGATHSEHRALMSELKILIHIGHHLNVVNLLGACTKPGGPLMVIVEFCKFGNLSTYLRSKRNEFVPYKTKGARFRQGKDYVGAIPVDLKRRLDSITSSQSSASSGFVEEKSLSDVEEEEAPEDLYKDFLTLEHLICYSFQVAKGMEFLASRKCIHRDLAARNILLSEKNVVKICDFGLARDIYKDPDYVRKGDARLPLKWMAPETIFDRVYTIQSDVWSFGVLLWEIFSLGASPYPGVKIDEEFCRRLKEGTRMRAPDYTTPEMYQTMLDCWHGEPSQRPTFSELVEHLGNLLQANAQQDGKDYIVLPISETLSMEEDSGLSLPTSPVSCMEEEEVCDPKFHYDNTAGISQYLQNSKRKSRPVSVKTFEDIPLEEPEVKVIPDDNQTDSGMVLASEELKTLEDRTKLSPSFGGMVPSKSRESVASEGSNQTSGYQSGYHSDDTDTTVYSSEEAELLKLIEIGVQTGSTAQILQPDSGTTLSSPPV

[2] = molecular target: T1, VEGFR2; assay: ELISA-like binding assay, fluoresceinated peptoids on immobilized VEGFR2 extracellular domain; design: VEGFR2 extracellular domain (amino acids 1-764 fused to 6× histidine-tagged Fc of human IgG, via the peptide IEGRMD; R&D Systems); linker peptide IEGRMD (internal); Fc of human IgG (C); 6xHis (C); purchased R&D Systems; details: for Kd: ELISA-like assay
Description: ELISA based binding assay. White, clear bottom 96-well plates (Corning Inc.) were coated with of 1 μg/ml recombinant human VEGFR2 protein (R&D Systems) using the sensitizing buffer (0.621 g NaHCO3 & 0.275 g Na2CO3 dissolved on 100 ml of ddH2O, pH=9.5) overnight at 4° C. Washed with 3×200 μl of wash buffer 1×PBS with 0.05% Tween-20 and blocked with Startingblock blocking buffer (Pierce). Added 50 μl of serial dilutions of FITC labeled peptoids dissolved in Startingblock blocking buffer to each well & allowed to react for 1 h at room temperature. Washed with 5×200 μl of wash buffer 1×PBS with 0.05% Tween-20 and remaining fluorescence was measured at 520 nm using the plate reader.
The isolated peptoids are VEGFR2 ligands. Two of the ‘hits’ from this screen, GU40C and GU40E (see FIG. 2) were resynthesized, both as free compounds and with C-terminal Cys (for C-terminal fluorescein tagging via maleimide chemistry), cleaved from the beads and purified to apparent homogeneity by reverse phase HPLC. […] The association of these peptoids with VEGFR2 was evaluated using an ELISA-like assay. A commercially available fusion protein containing the VEGFR2 extracellular domain (amino acids 1-764 fused to 6× histidine-tagged Fc of human IgG, via the peptide IEGRMD; R&D Systems) was plated into 96-well plates and then mixed with various concentrations of […] Fluorescein (FITC)-labeled peptoid. After washing away unbound peptoid, the remaining fluorescence emission signal was measured at 520 nm. In this assay purified VEGFR2 protein was used instead of the whole PAE/KDR cells that over express VEGFR2, in order to confirm these compounds were binding only to the receptor.
Target sequence in this assay (P35968 20-764): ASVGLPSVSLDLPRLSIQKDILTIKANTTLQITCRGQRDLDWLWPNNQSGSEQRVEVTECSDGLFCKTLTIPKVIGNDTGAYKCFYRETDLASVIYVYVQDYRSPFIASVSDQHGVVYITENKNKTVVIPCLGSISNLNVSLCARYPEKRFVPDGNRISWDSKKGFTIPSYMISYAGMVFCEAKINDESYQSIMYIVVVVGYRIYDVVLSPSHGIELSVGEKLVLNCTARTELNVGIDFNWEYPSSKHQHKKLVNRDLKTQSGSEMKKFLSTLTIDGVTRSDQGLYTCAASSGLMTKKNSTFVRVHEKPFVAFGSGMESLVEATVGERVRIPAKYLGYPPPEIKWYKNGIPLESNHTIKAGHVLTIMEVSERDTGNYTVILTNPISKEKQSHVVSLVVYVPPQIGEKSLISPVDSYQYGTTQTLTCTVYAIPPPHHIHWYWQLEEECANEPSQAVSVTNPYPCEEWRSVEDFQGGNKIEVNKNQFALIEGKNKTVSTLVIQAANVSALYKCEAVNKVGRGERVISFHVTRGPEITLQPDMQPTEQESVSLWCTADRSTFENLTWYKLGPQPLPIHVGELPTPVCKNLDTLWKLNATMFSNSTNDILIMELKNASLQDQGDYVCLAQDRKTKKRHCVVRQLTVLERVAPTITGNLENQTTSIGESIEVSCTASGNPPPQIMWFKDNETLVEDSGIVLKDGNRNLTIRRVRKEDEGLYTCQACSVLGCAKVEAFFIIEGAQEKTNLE

[3] = molecular target: T2, CD105 (Homo sapiens, UniProt P17813); assay: ELISA-like binding assay on immobilized CD105; details: same ELISA-like assay
T2 sequence (P17813 26-658): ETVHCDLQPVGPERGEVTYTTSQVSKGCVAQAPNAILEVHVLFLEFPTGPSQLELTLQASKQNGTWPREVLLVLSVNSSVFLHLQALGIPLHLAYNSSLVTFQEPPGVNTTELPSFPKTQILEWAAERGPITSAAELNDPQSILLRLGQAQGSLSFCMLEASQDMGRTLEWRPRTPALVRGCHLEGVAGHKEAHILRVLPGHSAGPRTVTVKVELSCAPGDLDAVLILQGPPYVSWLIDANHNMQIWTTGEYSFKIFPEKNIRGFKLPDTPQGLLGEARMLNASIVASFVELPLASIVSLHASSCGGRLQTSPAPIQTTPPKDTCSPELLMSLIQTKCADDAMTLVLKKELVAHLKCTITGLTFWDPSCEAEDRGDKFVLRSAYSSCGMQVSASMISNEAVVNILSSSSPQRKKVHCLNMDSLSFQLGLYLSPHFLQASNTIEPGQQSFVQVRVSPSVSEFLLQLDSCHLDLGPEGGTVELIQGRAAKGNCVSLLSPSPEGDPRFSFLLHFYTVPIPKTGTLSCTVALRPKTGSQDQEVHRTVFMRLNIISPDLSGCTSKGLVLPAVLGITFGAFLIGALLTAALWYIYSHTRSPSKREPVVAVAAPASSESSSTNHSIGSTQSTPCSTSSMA

[4] = system: GST; assay: ELISA-like binding assay on immobilized GST; details: same ELISA-like assay
[5] = molecular target: VEGFR2 ECD (Homo sapiens, UniProt P35968); assay: Competitive binding assay against fluoresceinated GU40C; details: increasing concentrations of unlabelled competitor
From the text: FIGS. 17A-B. GU40C truncation study results. (FIG. 17A) Downward arrows show GU40C truncation positions (FIG. 17B) Competitive binding assay results; increasing concentrations of unlabelled GU40C and truncated derivatives were competed with a constant amount of fluoraceinated GU40C. Symbols represent; GU40C (□), 8-mer (▴), 7-mer (▾), 6-mer (⋄), 5-mer (∘), 4-mer (▪), control (x).
To identify the main chain amides important for binding, the inventors synthesized five different truncated versions of GU40C, each containing all four of the N-terminal residues (FIG. 17A). Increasing concentrations of these truncated versions were competed with a constant amount of fluoresceinated GU40C for binding to the VEGR2 ECD. […] Elimination of the first C-terminal residue weakened binding about ten-fold (FIG. 17B). Further elimination of the next three C-terminal residues further diminished binding only slightly. However, deletion of the next residue essentially abolished binding of the peptoid to the VEGFR2 ECD.

[6] = system: HUVEC; assay: HUVEC tube formation assay; type: cell-based, human; details: 1.3 nM VEGF
Description: HUVEC tube formation assay. Endothelial cell medium gel (ECM gel) was thawed overnight at 4° C. refrigerator and added 50 μl to each well of pre-chilled white, clear bottom 96-well plate. Incubated for 30 min to facilitate the gel formation. […] 150 μl of these treated cell suspension (20,000 cells) was added per well and incubated at 37° C. and visualized tube formation under the light microscope after 16 hours (10× magnification).

[7] = system: A673 (human Ewing's sarcoma) tumors; details: mouse, in vivo
Description: Cell Culture. The human Ewing's sarcoma cell line A673 (CRL-1598, ATCC, Manassas, Va.) was grown as a monolayer in Dulbeco's minimal essential medium (Invitrogen, Carlsbad, Calif.) supplemented with 10% heat-inactivated fetal calf serum (Atlanta Biologicals, Lawrenceville, Ga.). Cells were maintained at 37° C. in a mixture of 5% CO2 and 95% air. Cell viability was monitored by Trypan Blue (Invitrogen, Carlsbad, Calif.) exclusion after trypsinization. Cell fingerprinting was performed by Dr. Luc Girard at the McDermott Center at UT Southwestern to verify identity of cells and the cells were also tested and found to be negative for Mycoplasma prior to use.
Tumor study. Tumors were established in the right flank of 6-8 week old female athymic nu/nu mice (NCl, Frederick, Md.) by subcutaneous injection of 2.5 million cells in a volume of 50 μl PBS. On the same day, an Alzet subcutaneous pump (DURECT Corporation, Cupertino Calif.) was implanted per manufacturer's recommendations. […] Pumps were weighed empty and again when filled to ensure correct loading. Based on the mean pumping rate (0.2 μl/hr), these pumps were predicted to elute for 21 days. Implantation of the pump was performed by making a small incision on the back of the anesthetized animal and subsequently using a hemostat to create a subcutaneous pocket in which to place the pump. The incision was closed with a 5-0 prolene (Ethicon, Somerville, N.J.). Animal weights and tumor volumes (calipers) were recorded twice weekly. Volumes were calculated using the formula D*d^2*0.52 where D is the long diameter and d is the perpendicular short diameter.
Immunohistochemistry. Formalin-fixed tissues were embedded in paraffin, sectioned and stained with hematoxylin and eosin by the Molecular Histopathology Laboratory at UT Southwestern. H&E photographs were taken at a total magnification of 40× on a Nikon DXM 1200 digital camera (Melville, N.Y.). For immunohistochemical staining, slides were deparaffinized by heating at 60° C. for one hour followed by immersion in xylenes. Tissue was rehydrated by sequential immersion in ethanols. Endogenous peroxidase activity was blocked with 3% H2O2 in methanol. Antigen retrieval was performed using pH 6.0 citrate buffer (LabVision, Freemont, Calif.) for 15 minutes in a pressure cooker. […] The primary antibody was detected by incubating with a biotinylated donkey anti-rat IgG (Jackson ImmunoResearch, Westgrove, Pa.) followed by the ABC detection kit (Vector laboratories, Burlingame, Calif.). […] Microvessel density (MVD) was determined by manually counting the number of blood vessels in visible in the microscopic field of view (total magnification, 100×). […]

[8] = system: HUVEC; assay: HUVEC proliferation assay; type: cell-based, human; details: 1.3 nM VEGF
Description: HUVEC proliferation assay. HUVEC cells (ScienceCell) were harvested using enzyme free cell dissociation buffer and resuspended in ECM (5% FBS). Cells were plated (2000 cells/well) on white, clear bottom 96-well plates coated with gelatin. Cells were grown for 24 h at 37° C. […] The treatment was repeated with fresh media (0.2% FBS) and reagents after two days. After four days, viable cells were determined using CellTiter-Glo® Luminescent Cell Viability Assay kit (Promega), and the luminescent signal was read by the plate reader.

[9] = molecular target: T1, VEGFR2; assay: GU40C4 cell surface binding assay (biotinylated peptoid, streptavidin quantum dots); type: cell-based; design: allow the library to be screened against the full-length receptor in as natural an environment as possible; host or cells: PAE/KDR (porcine aortic endothelial cells expressing human KDR); details: for binding to cells with or without native VEGFR2: HeLa, HEK-293, HFF, MCF-7, only MCF-7 expresses VEGFR2
Description: Different types of cells (PAE/KDR, PAE, Hela, HEK-293, MCF-7, HFF) were grown on each well of chamber slides (Nalge Nunc International) (10,000 cells/chamber) overnight. Washed, and fixed cells with 3.7% formaldehyde and blocked with Startingblock blocking buffer. […] After the final washing, cells were mounted by ProLong® Gold antifade reagent with DAPI (Invitrogen) and visualized under DAPI filter of the fluorescence microscope.
Specificity of the GU40C4-VEGFR2 interaction on the cell surface. […] The DAPI-stained nuclei are shown in blue. […] In addition, the red halo was not observed when the VEGFR2-expressing PAE/KDR cells were incubated with only the streptavidin-coated red quantum dots without addition of the biotinylated peptoid (FIG. 5C).
An important question is whether the peptoid is able to recognize VEGFR2 on the surface of cells when the receptor is expressed at native levels. To address this question, the inventors incubated biotinylated CU40C4 and streptavidin-coated red quantum dots with four different cell lines: HeLa, HEK-293, human foreskin fibroblast (HFF) and MCF-7. Of these, only MCF-7 expresses significant quantities of the VEGFR2. […] The inventors conclude from these experiments that the dimeric peptoid is highly specific for the VEGFR2 and can recognize the receptor even when it is expressed at native levels on the surface of a breast cancer cell.
Target sequence in this assay (P35968 20-1356): as the sequence (P35968 20-1356) above

Chain of VEGFR2 ECD (P35968 20-764 limits assumed): as the sequence (P35968 20-764) above

CC(C)CN(CC(=O)N(CCCCN)CC(=O)N(CC(=O)N(CC(=O)N(CCCCN)CC(=O)N(CC(=O)N(CCCCN)CC(=O)N(CCCCN)CC(=O)O)CC(C)C)Cc1ccc2c(c1)OCO2)C(C)c1ccccc1)C(=O)CNCCCCN (stereo not drawn) [GU40C, Nlys-Nleu-Nlys-Nmba-Npip-Nlys-Nleu-Nlys-Nlys] (H-[Nlys][Nleu][Nlys][X1][Gly(N-piperonyl)][Nlys][Nleu][Nlys][Nlys]-OH)
agonist activity on VEGFR2 phosphorylation ([1]; PAE/KDR cells, Western blot): Neither peptoid at any concentration tested evinced agonist activity; also recorded: None of the peptoids exhibited agonist activity
effect on VEGF-induced VEGFR2 phosphorylation (in words) ([1]; monomeric peptoids, 500 μM, 1.3 nM VEGF): weak antagonists
inhibition of VEGFR2 phosphorylation ([1]; peptoid 500 μM, 1.3 nM VEGF, PAE/KDR cells): approximately 75%
Kd ([2]; immobilized VEGFR2 extracellular domain, read-out: KD): 2850 ± 400 nM
Kd ([2]; read-out: dissociation constant (KD)): ~2000 nM
binding to VEGFR2 ECD (in words) ([2]; ELISA-like binding assay): able to display binding
binding after pre-incubation of immobilized receptor with unlabeled VEGF ([2]; fluoresceinated peptoid): almost no binding
binding to CD105 [3]: did not bind detectably
binding to GST [4]: did not bind detectably
competition with fluoresceinated GU40C for binding to VEGFR2 ECD [5]: competed efficiently
effect on VEGF-induced HUVEC tube formation ([6]; 10 μM): slight effect; also recorded: small effect

CC(C)CN(CC(=O)N(CCCCN)CC(=O)N(CC(=O)N(CC(=O)N(CCCCN)CC(=O)N(CC(=O)N(CCCCN)CC(=O)N(CCCCN)CC(=O)NCCCCCC(=O)NCCC(=O)N[C@@H](CCCCNC(=O)CN(CCCCN)C(=O)CN(CCCCN)C(=O)CN(CC(C)C)C(=O)CN(CCCCN)C(=O)CN(Cc1ccc2c(c1)OCO2)C(=O)CN(C(=O)CN(CCCCN)C(=O)CN(CC(C)C)C(=O)CNCCCCN)[C@H](C)c1ccccc1)C(=O)N[C@@H](CSC1CC(=O)N(c2ccc3c(c2)C(=O)OC32c3ccc(O)cc3Oc3cc(O)ccc32)C1=O)C(N)=O)CC(C)C)Cc1ccc2c(c1)OCO2)[C@H](C)c1ccccc1)C(=O)CNCCCCN (stereo partly drawn) [GU40C4] (I: H-[Nlys][Nleu][Nlys][Nrpe][Gly(N-piperonyl)][Nlys][Nleu][Nlys][Nlys][Ahx][βAla]KC(Fluorescein(5-Mal))-NH2 / II: H-[Nlys][Nleu][Nlys][Nrpe][Gly(N-piperonyl)][Nlys][Nleu][Nlys][Nlys]; amide I:12-II:C)
adverse effects of treatment [7]: no adverse effects
time after cessation of therapy until tumors grow at a rate similar to control [7]: 3 to 4 days
tumor necrosis (H&E histology) [7]: induced significant tumor necrosis
tumor size [7]: approximately 200 mm^3
improvement of antagonism over the monomeric parent compound [1]: 100- to 500 fold
IC50 ([8]; 4 days, read-out: IC50 of VEGF-induced HUVEC proliferation): ~1000 nM
inhibition of HUVEC proliferation (in words) ([8]; 1 μM): halfway
inhibition of HUVEC proliferation (in words) ([8]; 10 μM): reduced to essentially basal levels; also recorded: almost to the basal level
binding signal on PAE/KDR cells with competitor ([9]; 100-fold excess unlabeled GU40C4): disappeared completely
binding to cells with or without native VEGFR2 [9]: did not associate detectably with cells that lacked VEGFR2
binding to cells with or without native VEGFR2 ([9]; listed as CU40C4): red halo was observed only when the peptoid was incubated with the MCF-7 cells
binding to PAE parental cells ([9]; cells lacking the VEGFR2 expression vector): did not bind detectably
effect on VEGF-induced HUVEC tube formation ([6]; 1 μM and 10 μM): Clear evidence of the inhibition of tube formation; also recorded: able to disrupt HUVEC tube formation; also recorded: disrupted HUVEC tube formation

— patent US8334239B2, “High affinity VEGF-receptor antagonists” (The Board of Regents of the University of Texas System, priority 2007, dated 2012)
